Data taken from patent US20180042867A1, “METHODS OF TREATING CANCER” (Mitchell Woods Pharmaceuticals, Inc., priority 2015, published 2018).

Key:
MCF-7 cells [1] = conditions: by enhancing cytotoxicity of alkylating agents, cisplatin and melphalan; cited from earlier work
PANC-1 = assay: Proliferation in pancreatic cancer (PancCA) cell lines; format: cell-based, human; conditions: including PANC-1
PANC-1 cells [2] = assay: Untargeted metabolomics (1D 1H NMR) of intracellular metabolome; format: cell-based, human; conditions: PANC-1, MNF 1 μM
Description: (§1) The cells were seeded on 100×20 mm tissue culture plates and maintained at 37° C. under humidified 5% CO2 in air until they reached >70% confluence. The original media was replaced with media containing 0.5 μM or 1 μM MNF and the plates were incubated for an additional 1 hour, unless otherwise indicated. After completion of incubations, the media was aspirated and the cells were washed twice with 10 ml of phosphate buffer saline (pH 7.4) (PBS). The cells were then collected in 10 ml PBS by scrapping and sedimented by centrifugation (1000 rpm, 5 min), and the supernatant discarded. The cell pellets were stored at −80° C. until analyzed.
The cell pellet was re-suspended in 1 ml of 80% methanol (cryogenically cold) and incubated at −80° C. for 15 minutes. This suspension was then centrifuged at 13,000×g for 10 minutes at 4° C. The supernatant was collected in an eppendorf tube and the pellet was suspended in 0.25 ml of water. The suspension was vortexed mixed for 1 minute and centrifuged at 13,000×g for 10 minutes at 4° C. The supernatant was collected and mixed with the supernatant collected in the previously step and stream dried under nitrogen. The sample was stored at −80° C. until analyzed.
Sample Preparation and NMR Analysis—Non-Targeted Metabolomics.
The Cell pellet was re-suspended in 1 ml of 80% methanol (cryogenically cold) and incubated at −80° C. for 15 minutes. This suspension was then centrifuged at 13,000×g for 10 minutes at 4° C. The supernatant was collected in an eppendorf tube and the pellet was suspended in 0.25 ml of water. The suspension was vortexed mixed for 1 minute and centrifuged at 13,000×g for 10 minutes at 4° C. The supernatant was collected and mixed with the supernatant collected in the previously step and stream dried under nitrogen. The sample was stored at −80° C. until analyzed. The samples were prepared for NMR experimentation by dissolving in 0.6 ml of 50 mM phosphate buffer (pH 7.2) in 99.8% D2O with 50 μM 3-(tetramethysilane)propionic acid-2,2,3,3-d4 (TMSP). NMR spectra were recorded on a Bruker Avance III-HD 700 MHz spectrometer equipped with a QCI-P cryoprobe and a SampleJet automated sample changer. 1D ^1H spectra were collected using excitation sculpting to remove the solvent signal. A total of 16 k data points with a spectral width of 5482.5 Hz, 8 dummy scans, and 256 scans were used to obtain each spectrum. The data was processed completely in MVAPACK.
An untargeted metabolomics approach using one-dimensional proton nuclear magnetic resonance (1D ^1H NMR) was used to examine the effect of MNF incubation (1 μM, 1 hour) on the intracellular metabolome of PANC-1 cells.

[3] = test system: MDA-MB-231 breast cancer cells; assay: Intracellular lactate, targeted metabolomics (LC/MS); format: cell-based, human; conditions: MDA-MB-231, MNF (1 µM), 3 hours
Description: as §1, with “analyzed. […]” for “analyzed.”
The cells pellets were suspended in 20 μL water, 10 μL of 0.1 mM p-aminohippuric acid as an internal standard was added and the resulting mixture vortex mixed for 1 minute. […] The supernatant was collected and analysed using a system composed of an Agilent Technologies 1100 LC/MSD equipped with a G1322A degasser, G1312A quaternary pump, G1367A autosampler, G1316A column thermostat and G1946D mass spectrometer supplied with electrospray ionization (ESI). […] The compound of interest were monitored in the positive-ion mode for SIM at m/z 162.1 (carnitine), m/z 90.1 (lactate) and m/z 105.1 (3-hydroxybutyrate). The internal standard was monitored at m/z 195.1 (p-aminohippuric acid). […]

MCF-7 cells [4] = assay: Expression of ABC exporters in MCF-7 cells; format: cell-based, human; conditions: incubation with MNF
MDA-MD-231 cells = assay: Expression of ABC exporters in MDA-MB-231 cells; format: cell-based, human; conditions: incubation with MNF
Description: See, FIG. 6A. In MDA-MD-231 cells, MNF reduced the expression of P-gp and BCRP while the signal associated with MRP-1 was too faint to detect in the untreated controls as shown in FIG. 6B. As observed in the expression of cyclin D1, the expression of ABC transporters has been associated with EGFR expression and activity and nuclear translocation of PKM2. Thus, the observed effects are consistent with an MNF-associated reduction in EGFR expression and activity through it effect on glycolysis.

PANC-1 cells [5] = conditions: cited from earlier work

O=C(O)c1nn(Cc2ccc(Cl)cc2Cl)c2ccccc12 [lonidamine]
cellular survival (MCF-7 cells [1]): lowers cellular survival

COc1ccc(C[C@@H](C)NC[C@H](O)c2cc(O)cc(O)c2)c2ccccc12 [MNF, (R,R′)-4′-methoxy-1-naphthylfenoterol]
proliferation (PANC-1): significantly reduce proliferation
relative expression of 3-hydroxybutyrate (PANC-1 cells [2]): increase
signal associated with carnitine (PANC-1 cells [2]): significantly upregulated
signal associated with glycine (PANC-1 cells [2]): significantly upregulated
signal associated with leucine (PANC-1 cells [2]): significantly upregulated
signal associated with lysine (PANC-1 cells [2]): significantly upregulated
signal associated with lactate (PANC-1 cells [2]; vs untreated cells): significantly reduced
reduction in the intracellular concentration of lactate [3]: ~50%
expression of BCRP (MCF-7 cells [4]): significantly reduced
expression of MRP-1 (MCF-7 cells [4]): significantly reduced
expression of P-gp (MCF-7 cells [4]): significantly reduced
expression of BCRP (MDA-MD-231 cells): reduced
expression of P-gp (MDA-MD-231 cells): reduced

O=C(O)C(=O)CBr [3-bromopyruvate]
cellular survival (PANC-1 cells [5]): lowers cellular survival
